Assay results reported in patent publication US20240101549A1, “N-(2-(4-CYANOTHIAZOLIDIN-3-YL)-2-OXOETHYL)-QUINOLINE-4-CARBOXAMIDES” (AstraZeneca AB, priority 2020, published 2024).

Key:
FAP = FAP (Macaca fascicularis, UniProt A0A2K5VGH4); test: FAP plasma inhibition assay, cynomolgus plasma; type: biochemical; conditions: cynomolgus plasma diluted 1:40, 75 μM Ala-Pro-AMC; n = 1; read-out: FAP Cyno Plasma IC50
Procedure: D. FAP Plasma Inhibition Assay This assay was adapted from the method described in Example 237 for detection of FAP target engagement enzyme activity in plasma. […] Compounds were tested using 10 CR, 3 fold dilution series from 500 nM FAC. Two replicates for each assay point were run on the same plate. A fluorescence blank read was taken before substrate addition. […] Plates were incubated for 40 min at rt in the dark. […] IC50 values were determined by plotting % inhibition versus log compound concentration.

Caco-2 cell permeability = type: in vitro ADME; conditions: human, Caco-2, AB intrinsic; n = 1 or average of n = 2-4; read-out: Caco2 AB Intrinsic Papp
Procedure: Caco-2 cell permeability was measured as described in Mol Pharm 2017, 14, 1601.

FAP, sequence (A0A2K5VGH4 entry or part of it): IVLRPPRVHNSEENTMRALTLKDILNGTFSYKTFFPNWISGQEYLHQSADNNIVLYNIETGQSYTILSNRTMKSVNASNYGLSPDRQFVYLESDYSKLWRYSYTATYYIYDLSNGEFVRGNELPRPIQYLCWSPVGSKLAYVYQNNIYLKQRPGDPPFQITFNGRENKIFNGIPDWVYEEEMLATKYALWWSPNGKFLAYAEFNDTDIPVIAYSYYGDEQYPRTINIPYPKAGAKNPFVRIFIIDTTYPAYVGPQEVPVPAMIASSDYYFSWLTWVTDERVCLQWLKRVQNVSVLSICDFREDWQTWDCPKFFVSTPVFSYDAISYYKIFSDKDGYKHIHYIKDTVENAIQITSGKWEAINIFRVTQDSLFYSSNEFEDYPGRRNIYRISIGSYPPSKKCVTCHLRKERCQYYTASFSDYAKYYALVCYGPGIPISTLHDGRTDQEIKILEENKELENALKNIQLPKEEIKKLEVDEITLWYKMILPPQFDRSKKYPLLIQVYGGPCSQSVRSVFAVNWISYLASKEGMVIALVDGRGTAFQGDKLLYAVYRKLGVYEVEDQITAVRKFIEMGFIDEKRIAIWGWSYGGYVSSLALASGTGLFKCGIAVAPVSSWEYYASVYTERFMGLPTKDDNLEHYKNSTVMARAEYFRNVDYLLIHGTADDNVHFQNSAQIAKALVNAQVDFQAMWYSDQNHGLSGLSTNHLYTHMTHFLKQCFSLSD

IC50 (FAP) [pM] | Papp A→B (Caco-2 cell permeability) [×10⁻⁶ cm/s] | Structure (SMILES)
200 |  | COC1CCN(c2ccc3nccc(C(=O)NCC(=O)N4CSC[C@H]4C#N)c3c2)CC1 [Example 8, (R)—N-(2-(4-Cyanothiazolidin-3-yl)-2-oxoethyl)-6-(4-methoxypiperidin-1-yl)quinoline-4-carboxamide]
200 |  | CC1(C)OCCN(c2ccc3nccc(C(=O)NCC(=O)N4CSC[C@H]4C#N)c3c2)C1=O [Example 16, (R)—N-(2-(4-Cyanothiazolidin-3-yl)-2-oxoethyl)-6-(2,2-dimethyl-3-oxomorpholino)quinoline-4-carboxamide]
300 |  | CC1(F)CN(c2ccc3nccc(C(=O)NCC(=O)N4CSC[C@H]4C#N)c3c2)C1 [Example 24, (R)—N-(2-(4-Cyanothiazolidin-3-yl)-2-oxoethyl)-6-(3-fluoro-3-methyl-azetidin-1-yl)quinoline-4-carboxamide]
 | 26 | COCC1(C)CN(c2ccc3nccc(C(=O)NCC(=O)N4CSC[C@H]4C#N)c3c2)C1 [Example 29, (R)—N-(2-(4-Cyanothiazolidin-3-yl)-2-oxoethyl)-6-(3-(methoxymethyl)-3-methylazetidin-1-yl)quinoline-4-carboxamide]
 | 15 | CO[C@@H]1CN(c2ccc3nccc(C(=O)NCC(=O)N4CSC[C@H]4C#N)c3c2)[C@H]1C [Example 30, N-(2-((R)-4-Cyanothiazolidin-3-yl)-2-oxoethyl)-6-((2S,3R)-3-methoxy-2-methylazetidin-1-yl)quinoline-4-carboxamide]
300 |  | N#C[C@@H]1CSCN1C(=O)CNC(=O)c1ccnc2ccc(N3C[C@@H](F)[C@@H](F)C3)cc12 [Example 50, N-(2-((R)-4-Cyanothiazolidin-3-yl)-2-oxoethyl)-6-((3R,4S)-3,4-difluoropyrrolidin-1-yl)quinoline-4-carboxamide]
300 |  | C[C@@H]1CN(c2ccc3nccc(C(=O)NCC(=O)N4CSC[C@H]4C#N)c3c2)C[C@H](C)O1 [Example 68, N-(2-((R)-4-Cyanothiazolidin-3-yl)-2-oxoethyl)-6-((2R,6S)-2,6-dimethylmorpholino)-quinoline-4-carboxamide]
200 |  | N#C[C@@H]1CSCN1C(=O)CNC(=O)c1ccnc2ccc(N3CCO[C@@H](CF)C3)cc12 [Example 69, N-(2-((R)-4-Cyanothiazolidin-3-yl)-2-oxoethyl)-6-((R)-2-(fluoromethyl)morpholino)-quinoline-4-carboxamide]
200 |  | N#C[C@@H]1CSCN1C(=O)CNC(=O)c1ccnc2ccc(N3CCO[C@H](CF)C3)cc12 [Example 71, N-(2-((R)-4-Cyanothiazolidin-3-yl)-2-oxoethyl)-6-((S)-2-(fluoromethyl)morpholino)-quinoline-4-carboxamide]
200 |  | C[C@@H]1CN(c2ccc3nccc(C(=O)NCC(=O)N4CSC[C@H]4C#N)c3c2)CCO1 [Example 72, N-(2-((R)-4-Cyanothiazolidin-3-yl)-2-oxoethyl)-6-((R)-2-methylmorpholino)-quinoline-4-carboxamide]
500 |  | CC1(C)CCN(c2ccc3nccc(C(=O)NCC(=O)N4CSC[C@H]4C#N)c3c2)C(=O)O1 [Example 112, (R)—N-(2-(4-Cyanothiazolidin-3-yl)-2-oxoethyl)-6-(6,6-dimethyl-2-oxo-1,3-oxazinan-3-yl)quinoline-4-carboxamide]
 | 0.51 | CC1(O)CN(c2ccc3nccc(C(=O)NCC(=O)N4CSC[C@H]4C#N)c3c2)C1 [Example 165, (R)—N-(2-(4-Cyanothiazolidin-3-yl)-2-oxoethyl)-6-(3-hydroxy-3-methyl-azetidin-1-yl)quinoline-4-carboxamide]
1000 |  | CN1CCC(F)(c2ccc3nccc(C(=O)NCC(=O)N4CSC[C@H]4C#N)c3c2)CC1 [Example 195, (R)—N-(2-(4-Cyanothiazolidin-3-yl)-2-oxoethyl)-6-(4-fluoro-1-methyl-piperidin-4-yl)quinoline-4-carboxamide]
300 |  | N#C[C@@H]1CSCN1C(=O)CNC(=O)c1ccnc2ccc(N3CCC(F)CC3)cc12 [Example 205, (R)—N-(2-(4-Cyanothiazolidin-3-yl)-2-oxoethyl)-6-(4-fluoropiperidin-1-yl)quinoline-4-carboxamide]

Further lines, the compound ahead of its results:

Structure (SMILES) | IC50 (FAP) [pM] | Papp A→B (Caco-2 cell permeability) [×10⁻⁶ cm/s]
CC1(CF)CN(c2ccc3nccc(C(=O)NCC(=O)N4CSC[C@H]4C#N)c3c2)C1 [Example 27, (R)—N-(2-(4-Cyanothiazolidin-3-yl)-2-oxoethyl)-6-(3-(fluoromethyl)-3-methylazetidin-1-yl)quinoline-4-carboxamide] | 300 | 
C[C@@H]1CN(c2ccc3nccc(C(=O)NCC(=O)N4CSC[C@H]4C#N)c3c2)C[C@@H](C)O1 [Example 70, N-(2-((R)-4-Cyanothiazolidin-3-yl)-2-oxoethyl)-6-((2R,6R)-2,6-dimethylmorpholino)-quinoline-4-carboxamide] | 200 | 
N#C[C@@H]1CSCN1C(=O)CNC(=O)c1ccnc2ccc(N3CCO[C@H](C(F)(F)F)C3)cc12 [Example 74, N-(2-((R)-4-Cyanothiazolidin-3-yl)-2-oxoethyl)-6-((S)-2-(trifluoromethyl)-morpholino)quinoline-4-carboxamide] | 200 | 
C[C@@H]1OCCN(c2ccc3nccc(C(=O)NCC(=O)N4CSC[C@H]4C#N)c3c2)[C@H]1C [Example 82, N-(2-((R)-4-Cyanothiazolidin-3-yl)-2-oxoethyl)-6-((2S,3S)-2,3-dimethyl-morpholino)quinoline-4-carboxamide] | 300 | 
C[C@H]1COCCN1c1ccc2nccc(C(=O)NCC(=O)N3CSC[C@H]3C#N)c2c1 [Example 102, N-(2-((R)-4-Cyanothiazolidin-3-yl)-2-oxoethyl)-6-((S)-3-methyl-morpholino)quinoline-4-carboxamide] | 200 | 
CC1(C)Cc2c(-c3ccc4nccc(C(=O)NCC(=O)N5CSC[C@H]5C#N)c4c3)cnn2C1 [Example 123, (R)—N-(2-(4-Cyanothiazolidin-3-yl)-2-oxoethyl)-6-(5,5-dimethyl-5,6-dihydro-4H-pyrrolo[1,2-b]pyrazol-3-yl)quinoline-4-carboxamide] |  | 14
CC(F)(F)C1CN(c2ccc3nccc(C(=O)NCC(=O)N4CSC[C@H]4C#N)c3c2)C1 [Example 147, (R)—N-(2-(4-Cyanothiazolidin-3-yl)-2-oxoethyl)-6-(3-(1,1-difluoroethyl)-azetidin-1-yl)quinoline-4-carboxamide] | 100 | 
COC1(C)CN(c2ccc3nccc(C(=O)NCC(=O)N4CSC[C@H]4C#N)c3c2)C1 [Example 151, (R)—N-(2-(4-Cyanothiazolidin-3-yl)-2-oxoethyl)-6-(3-methoxy-3-methylazetidin-1-yl)quinoline-4-carboxamide] | 300 | 
N#C[C@@H]1CSCN1C(=O)CNC(=O)c1ccnc2ccc(N3CC(F)(CF)C3)cc12 [Example 157, (R)—N-(2-(4-Cyanothiazolidin-3-yl)-2-oxoethyl)-6-(3-fluoro-3-(fluoromethyl)azetidin-1-yl)quinoline-4-carboxamide] | 400 | 
N#C[C@@H]1CSCN1C(=O)CNC(=O)c1ccnc2ccc(N3CC4(C3)OCCO4)cc12 [Example 163, (R)—N-(2-(4-Cyanothiazolidin-3-yl)-2-oxoethyl)-6-(5,8-dioxa-2-azaspiro[3.4]octan-2-yl)quinoline-4-carboxamide] | 200 | 
CC(=O)NCC1(C)CN(c2ccc3nccc(C(=O)NCC(=O)N4CSC[C@H]4C#N)c3c2)C1 [Example 181, (R)-6-(3-(Acetamidomethyl)-3-methylazetidin-1-yl)-N-(2-(4-cyano-thiazolidin-3-yl)-2-oxoethyl)quinoline-4-carboxamide] | 500 | 
